Numbering of substitutions follows the chain as printed.
Tests used:
[1] = target: T1, endoxifen-responsive dominant negative Zap70 polypeptide including an ER(T2) domain having a G400L mutation (Homo sapiens, UniProt P03372, G400L/L544A/M543A); assay: Endoxifen pIC50 in NFAT-Luciferase reporter assay, G400L construct (Example 8); assay type: cell-based; settings: Jurkat E6.1 cells, 10 ng G400L construct, 1:30 Immunocult CD3/CD28/CD2, 19 hours
T1 construct: expressed in transfected cells; host or cells: Jurkat E6.1 cells, transient transfection
T1 sequence (P03372 with tags, fused parts or gaps G400L/M543A/L544A): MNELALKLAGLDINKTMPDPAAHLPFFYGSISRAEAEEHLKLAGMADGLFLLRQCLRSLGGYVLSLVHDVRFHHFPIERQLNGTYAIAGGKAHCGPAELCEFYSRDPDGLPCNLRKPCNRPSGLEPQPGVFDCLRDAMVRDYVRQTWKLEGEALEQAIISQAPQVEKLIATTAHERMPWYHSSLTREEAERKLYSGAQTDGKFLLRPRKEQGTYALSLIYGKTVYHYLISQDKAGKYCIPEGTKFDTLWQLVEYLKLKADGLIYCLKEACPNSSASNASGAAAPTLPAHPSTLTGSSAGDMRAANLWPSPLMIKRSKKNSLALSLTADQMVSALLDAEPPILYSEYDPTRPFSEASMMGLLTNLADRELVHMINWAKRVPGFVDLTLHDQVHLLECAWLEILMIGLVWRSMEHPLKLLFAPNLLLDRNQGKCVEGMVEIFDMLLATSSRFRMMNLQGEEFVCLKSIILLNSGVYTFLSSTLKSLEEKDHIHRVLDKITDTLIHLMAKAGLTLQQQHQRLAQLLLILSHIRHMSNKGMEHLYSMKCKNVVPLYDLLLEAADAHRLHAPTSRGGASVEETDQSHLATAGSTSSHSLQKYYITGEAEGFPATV
Procedure: (§1) To examine how effective endoxifen is at relieving the inhibition or masking of a dominant negative signaling moiety of a trigger-responsive dominant negative signaling polypeptide by an ER(T2) domain including either a G400V or a G400L mutation, Jurkat E6.1 cells were transiently transfected with 90 ng NFAT-Luciferase reporter construct and 10 ng of a G400V or G400L construct. The transfected cells were stimulated the addition of 1:30 Immunocult CD3/CD28/CD2 tetrameric antibody mixture, and treated with or without endoxifen for 19 hours before assaying for luciferase activity. Results were normalized to maximum TCR stimulation with Immunocult alone, with 0% representing the activity of unstimulated transfected cells. Points represent mean activity from sextuplicate wells with error bars representing SEM. pIC50's were calculated using a variable slope sigmoidal dose-response model using GraphPad Prism.

[2] = target: T2, endoxifen-responsive dominant negative Zap70 polypeptide including an ER(T2) domain having a G400V mutation (Homo sapiens, UniProt P03372, G400V/L544A/M543A); assay: Endoxifen pIC50 in NFAT-Luciferase reporter assay, G400V construct (Example 8); assay type: cell-based; settings: Jurkat E6.1 cells, 10 ng G400V construct, 1:30 Immunocult CD3/CD28/CD2, 19 hours
T2 construct: expressed in transfected cells; host or cells: Jurkat E6.1 cells, transient transfection
T2 sequence (P03372 with tags, fused parts or gaps G400V/M543A/L544A): T1 sequence (P03372 with tags, fused parts or gaps G400L/M543A/L544A) with L415V
Procedure: as §1

IL2-Luciferase reporter [3] = assay: IL2-Luciferase reporter assay with SHP1(210-595) constructs (Example 12); assay type: cell-based, human; settings: Jurkat E6.1 cells, α-CD3 and α-CD28, with or without endoxifen, compared to empty vector controls
Procedure: To provide a means for assessing T cell activity, a construct containing a reporter gene, such as firefly luciferase (Luc), under the control of an IL2 response element can be used. In the present Example, Jurkat E6.1 cells were transiently transfected with an IL2-Luciferase reporter construct, as well as one of (a) empty vector; (b) an expression construct encoding SHP1(210-595); and (c) an expression construct encoding SHP1(210-595)-ER(T12). Transient transfections were performed using LTX and PLUS transfection reagent (ThermoFisher Scientific) according to manufacturer's protocols.
Transfected cells were treated in the absence or presence of 1:30 dilution of Immunocult CD3/CD28 tetrameric antibody mixture (StemCell Technologies, Canada), which stimulated T-cell activity. Stimulated cells were then further treated with RPMI 1640 media plus 4.8% FBS stripped with charcoal dextran (ThermoFisher Scientific), without Z-endoxifen or with 50 nM Z-endoxifen (Axon-Medchem). Luciferase activity (luminescence) was measured and reported as percent induction of IL2-Luciferase.

NFAT-Luciferase reporter = NFAT-Luciferase reporter assay with SHP1(210-595) constructs, endoxifen dose response (FIG. 31); assay type: cell-based, human; settings: Jurkat E6.1 cells, 1:40 Immunocult CD3/CD28, varying amounts of Z-endoxifen
Source text: (§2) Reporter constructs included firefly luciferase (Luc) under the control of an NFAT response element and firefly luciferase (Luc) under the control of an IL2 response element. Data presented in the first panel is from Jurkat E6.1 cells transiently transfected with an NFAT-Luciferase reporter construct, as well as one of (a) empty vector; (b) an expression construct encoding SHP1(210-595); and (c) an expression construct encoding SHP1(210-595)-ER(T12). Data presented in the second panel is from Jurkat E6.1 cells transiently transfected with an IL2-Luciferase reporter construct, as well as one of (a) empty vector; (b) an expression construct encoding SHP1(210-595); and (c) an expression construct encoding SHP1(210-595)-ER(T12). Transient transfections were performed using LTX and PLUS transfection reagent (ThermoFisher Scientific) according to manufacturer's protocols. Transfected cells were treated in the presence of 1:40 dilution of Immunocult CD3/CD28 tetrameric antibody mixture (StemCell Technologies, Canada), which stimulated T-cell activity. Stimulated cells were then further treated with RPMI 1640 media plus 4.8% FBS stripped with charcoal dextran (ThermoFisher Scientific), with varying amounts of Z-endoxifen (Axon-Medchem) as indicated in FIG. 31. Luciferase activity (luminescence) was measured and reported as percent induction of IL2-Luciferase.

IL2-Luciferase reporter [4] = assay: IL2-Luciferase reporter assay with SHP1(210-595) constructs, endoxifen dose response (FIG. 31); assay type: cell-based, human; settings: Jurkat E6.1 cells, 1:40 Immunocult CD3/CD28, varying amounts of Z-endoxifen
Source text: as §2

Row | Compound | IC50 [1] [nM] | IC50 [2] [nM] | luciferase reporter expression (percent induction of IL2-Luciferase) (IL2-Luciferase reporter [3]) | inhibition of NFAT-Luciferase reporter expression (NFAT-Luciferase reporter) | inhibition of IL2-Luciferase reporter expression (IL2-Luciferase reporter [4])
1 | CC/C(=C(\c1ccc(O)cc1)c1ccc(OCCNC)cc1)c1ccccc1 [endoxifen] | 1.58 | 6.31 |  |  | 
2 | SHP1(210-595): constitutively active SHP1 phosphatase signaling moiety, SEQ ID NO: 23 |  |  | substantially reduced expression of luciferase reporter | endoxifen-independent manner | endoxifen-independent manner
